We go through eight compounds from US10040781B2, “Tank-binding kinase inhibitor compounds” (Gilead Sciences, Inc., priority 2014, dated 2018).

The target in test [1] is IKKε (Homo sapiens (Human), UniProt Q14164). Put plainly: IKKε TR-FRET enzymatic assay. Format: biochemical. As to conditions: TR-FRET, 2×Km ATP; geometric mean of minimum four determinations; read-out: IKKe IC50. (TR-FRET usually uses a lanthanide donor and a delayed reading to cut background.)
The target of test [2] is hJAK2 (Homo sapiens (Human), UniProt O60674). Put plainly: hJAK2 LANCE TR-FRET enzymatic assay. The class given is biochemical. Particulars: read-out: JAK2 IC50.
Sequence of hJAK2 (O60674 whole entry): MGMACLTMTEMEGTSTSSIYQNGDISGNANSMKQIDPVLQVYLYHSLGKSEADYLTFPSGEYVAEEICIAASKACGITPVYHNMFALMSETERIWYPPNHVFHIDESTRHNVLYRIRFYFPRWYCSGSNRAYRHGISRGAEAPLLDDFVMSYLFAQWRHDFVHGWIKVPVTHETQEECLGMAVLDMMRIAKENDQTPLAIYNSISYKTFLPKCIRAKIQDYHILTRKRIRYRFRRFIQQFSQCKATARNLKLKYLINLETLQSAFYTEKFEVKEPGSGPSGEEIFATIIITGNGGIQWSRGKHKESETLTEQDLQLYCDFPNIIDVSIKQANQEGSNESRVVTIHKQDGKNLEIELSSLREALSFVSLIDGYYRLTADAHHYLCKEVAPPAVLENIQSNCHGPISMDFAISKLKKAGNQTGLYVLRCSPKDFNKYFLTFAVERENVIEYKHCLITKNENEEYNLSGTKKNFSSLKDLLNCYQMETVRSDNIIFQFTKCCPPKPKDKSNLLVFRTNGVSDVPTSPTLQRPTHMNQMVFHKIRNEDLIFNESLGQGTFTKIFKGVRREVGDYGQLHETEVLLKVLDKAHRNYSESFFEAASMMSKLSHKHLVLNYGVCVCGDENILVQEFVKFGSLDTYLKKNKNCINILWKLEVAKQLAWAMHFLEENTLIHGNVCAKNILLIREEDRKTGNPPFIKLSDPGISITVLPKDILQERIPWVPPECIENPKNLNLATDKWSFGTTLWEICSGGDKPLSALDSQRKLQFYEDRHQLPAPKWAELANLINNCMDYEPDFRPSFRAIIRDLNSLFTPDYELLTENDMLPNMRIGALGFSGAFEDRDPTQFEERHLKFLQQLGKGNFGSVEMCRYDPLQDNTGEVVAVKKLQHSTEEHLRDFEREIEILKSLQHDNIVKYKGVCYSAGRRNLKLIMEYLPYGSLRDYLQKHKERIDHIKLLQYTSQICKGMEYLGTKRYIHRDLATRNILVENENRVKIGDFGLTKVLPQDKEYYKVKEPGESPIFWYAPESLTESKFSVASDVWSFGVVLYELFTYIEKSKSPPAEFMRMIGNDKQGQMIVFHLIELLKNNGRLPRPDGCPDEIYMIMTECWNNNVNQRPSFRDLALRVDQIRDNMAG
In test [3] the target is TBK1 (Homo sapiens (Human), UniProt Q9UHD2). Put plainly: TBK1 TR-FRET enzymatic assay.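 Also: phosphorylation of a biotinylated Ser/Thr peptide by purified full-length recombinant TBK1, read by TR-FRET after 240 min at 25 °C, IC50 is the geometric mean of at least four runs.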
Sequence of TBK1 (Q9UHD2 whole entry): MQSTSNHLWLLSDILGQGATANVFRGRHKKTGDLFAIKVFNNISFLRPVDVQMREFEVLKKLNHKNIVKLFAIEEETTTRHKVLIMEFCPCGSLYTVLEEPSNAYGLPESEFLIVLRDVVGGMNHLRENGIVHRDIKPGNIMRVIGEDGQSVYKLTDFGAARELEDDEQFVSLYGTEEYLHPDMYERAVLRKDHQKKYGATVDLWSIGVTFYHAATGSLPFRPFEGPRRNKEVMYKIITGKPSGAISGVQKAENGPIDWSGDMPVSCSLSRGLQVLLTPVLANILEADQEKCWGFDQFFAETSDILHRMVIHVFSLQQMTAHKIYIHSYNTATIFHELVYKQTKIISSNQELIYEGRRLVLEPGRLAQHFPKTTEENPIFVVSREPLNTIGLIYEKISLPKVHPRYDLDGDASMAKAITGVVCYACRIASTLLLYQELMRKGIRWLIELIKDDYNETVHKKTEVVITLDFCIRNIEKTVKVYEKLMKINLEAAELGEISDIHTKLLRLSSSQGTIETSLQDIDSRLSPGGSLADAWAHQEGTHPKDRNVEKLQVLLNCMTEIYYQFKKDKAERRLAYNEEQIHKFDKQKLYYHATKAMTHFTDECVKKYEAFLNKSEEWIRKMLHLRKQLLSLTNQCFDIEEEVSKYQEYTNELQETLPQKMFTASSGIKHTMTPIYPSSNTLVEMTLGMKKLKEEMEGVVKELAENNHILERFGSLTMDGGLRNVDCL

Bounds are passed on as bounds.

A word on the IC50: it is the concentration at which inhibition is half-maximal.

Sequence of IKKε (Q14164 whole entry): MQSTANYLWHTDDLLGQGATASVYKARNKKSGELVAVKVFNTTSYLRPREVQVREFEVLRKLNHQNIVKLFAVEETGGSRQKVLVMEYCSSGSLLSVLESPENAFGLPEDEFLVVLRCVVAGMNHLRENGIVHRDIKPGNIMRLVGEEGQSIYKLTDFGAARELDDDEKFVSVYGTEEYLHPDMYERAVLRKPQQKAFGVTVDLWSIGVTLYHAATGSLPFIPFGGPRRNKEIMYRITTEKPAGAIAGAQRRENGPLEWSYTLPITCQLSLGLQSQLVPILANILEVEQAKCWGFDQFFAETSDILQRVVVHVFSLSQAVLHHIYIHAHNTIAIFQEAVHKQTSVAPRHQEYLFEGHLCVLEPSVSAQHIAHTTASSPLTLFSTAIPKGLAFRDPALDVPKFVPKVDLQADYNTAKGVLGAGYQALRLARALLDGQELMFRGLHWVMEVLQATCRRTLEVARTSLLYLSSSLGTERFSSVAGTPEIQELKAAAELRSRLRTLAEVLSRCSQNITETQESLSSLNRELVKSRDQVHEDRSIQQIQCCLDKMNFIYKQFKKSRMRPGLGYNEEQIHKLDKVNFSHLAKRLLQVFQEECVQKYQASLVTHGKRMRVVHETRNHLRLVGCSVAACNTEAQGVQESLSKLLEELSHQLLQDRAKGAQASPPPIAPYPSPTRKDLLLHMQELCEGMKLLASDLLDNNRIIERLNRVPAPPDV

For `Cc1n[nH]c(C(=O)N2CC[C@H](Oc3ccc(-c4ncnc(Nc5ccc(N6CCN(C7COC7)CC6)cc5)n4)cc3C#N)C(F)(F)C2)n1` [Example 452, (S)-2-((3,3-difluoro-1-(3-methyl-1H-1,2,4-triazole-5-carbonyl)piperidin-4-yl)oxy)-5-(4-((4-(4-(oxetan-3-yl)piperazin-1-yl)phenyl)amino)-1,3,5-triazin-2-yl)benzonitrile], the results for the IC50 in test [1], in test [2] and in test [3] were 1 nM, 23 nM and 3 nM, respectively.
On to `N#Cc1cc(-c2ncnc(Nc3cnn(C(F)F)c3)n2)ccc1O[C@H]1CCNC[C@H]1F` [Example 453, 5-(4-((1-(difluoromethyl)-1H-pyrazol-4-yl)amino)-1,3,5-triazin-2-yl)-2-(((3R,4S)-3-fluoropiperidin-4-yl)oxy)benzonitrile], for which the IC50 is 577 nM in test [1], no less than 1000 nM in test [2] and 39 nM in test [3].
The matching figures for `CC(C)(C)n1cc(Nc2ncnc(-c3ccc(O[C@H]4CCN(C(=O)CCO)C[C@H]4F)c(C#N)c3)n2)cn1` [Example 458, 5-(4-((1-(tert-butyl)-1H-pyrazol-4-yl)amino)-1,3,5-triazin-2-yl)-2-(((3R,4S)-3-fluoro-1-(3-hydroxypropanoyl)piperidin-4-yl)oxy)benzonitrile]: 61 nM, 223 nM and 23 nM.
For the compound `CC(C)(C)n1cc(Nc2ncnc(-c3ccc(O[C@H]4CCN(C(=O)CC#N)C[C@H]4F)c(C#N)c3)n2)cn1` [Example 459, 5-(4-((1-(tert-butyl)-1H-pyrazol-4-yl)amino)-1,3,5-triazin-2-yl)-2-(((3R,4S)-1-(2-cyanoacetyl)-3-fluoropiperidin-4-yl)oxy)benzonitrile], the IC50 in test [1] came out at 22 nM; in test [2] it was 108 nM; in test [3], 11 nM.
For `C[C@H](O)C(=O)N1CC[C@H](Oc2ccc(-c3ncnc(Nc4ccc(N5CCO[C@@H](CO)C5)cc4)n3)cc2C#N)C(F)(F)C1` [Example 460, 2-(((S)-3,3-difluoro-1-((S)-2-hydroxypropanoyl)piperidin-4-yl)oxy)-5-(4-((4-((R)-2-(hydroxymethyl)morpholino)phenyl)amino)-1,3,5-triazin-2-yl)benzonitrile] the same measures were 1 nM, 131 nM and 2 nM.
`CC(C)[C@H](O)C(=O)N1CC[C@H](Oc2ccc(-c3ncnc(Nc4ccc(N5CCN(C6COC6)CC5)cc4)n3)cc2C#N)[C@H](F)C1` [Example 461, 2-(((3R,4S)-3-fluoro-1-((S)-2-hydroxy-3-methylbutanoyl)piperidin-4-yl)oxy)-5-(4-((4-(4-(oxetan-3-yl)piperazin-1-yl)phenyl)amino)-1,3,5-triazin-2-yl)benzonitrile]: the half-maximal inhibitory concentration (IC50) was 63 nM in test [1], 930 nM in test [2] and 16 nM in test [3].
For `C[C@H](O)C(=O)N1CC[C@H](Oc2ccc(-c3ncnc(Nc4ccc(N5CCN(C6COC6)CC5=O)cc4)n3)cc2C#N)[C@H](F)C1` [Example 462, 2-(((3R,4S)-3-fluoro-1-((S)-2-hydroxypropanoyl)piperidin-4-yl)oxy)-5-(4-((4-(4-(oxetan-3-yl)-2-oxopiperazin-1-yl)phenyl)amino)-1,3,5-triazin-2-yl)benzonitrile] the same measures were 4 nM, no less than 1000 nM and 3 nM.
The matching figures for `Cn1cc(C(O)C(=O)N2CC[C@H](Oc3ccc(-c4ncnc(Nc5ccc(N6CCN(C7COC7)CC6)cc5)n4)cc3C#N)[C@H](F)C2)cn1` (stereo partly drawn) [Example 463, 2-(((3R,4S)-3-fluoro-1-(2-hydroxy-2-(1-methyl-1H-pyrazol-4-yl)acetyl)piperidin-4-yl)oxy)-5-(4-((4-(4-(oxetan-3-yl)piperazin-1-yl)phenyl)amino)-1,3,5-triazin-2-yl)benzonitrile]: 68 nM, 272 nM and 30 nM.
